Laboratory results taken from PubChem BioAssay AID248 (DTP/NCI, 2004).
Where “and” joins values, the source holds several entries; their conditions need not be identical. Identical values can stand only once. Inconclusive results and toxic doses are left out. Cut-off read from the data, not from the text of the source: active = T/C of 150% or more; inactive = T/C below 125%.

Test system: L1210 leukemia ip in BDF1 mice, survival T/C
Test: NCI In Vivo Anticancer Drug Screen. Data for tumor model L1210 Leukemia (intraperitoneal) in B6D2F1 (BDF1) mice
Conditions: endpoint: mean survival time, higher = longer survival
Method in brief: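 Ratio derived from survival: compound-dosed mice over vehicle-dosed mice, all bearing a transplantable tumor.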

[1] = dose: 100.0 mg/kg/injection, schedule: Q04DX003 (ip), vehicle: saline
[2] = dose: 200.0 mg/kg/injection, schedule: Q04DX003 (ip), vehicle: saline
[3] = dose: 400.0 mg/kg/injection, schedule: Q04DX003 (ip), vehicle: saline
[4] = dose: 100.0 mg/kg/injection, schedule: Q01DX001 (ip), vehicle: carboxymethylcellulose (CMC)
[5] = dose: 200.0 mg/kg/injection, schedule: Q01DX001 (ip), vehicle: carboxymethylcellulose (CMC)
[6] = dose: 400.0 mg/kg/injection, schedule: Q01DX001 (ip), vehicle: carboxymethylcellulose (CMC)
[7] = dose: 50.0 mg/kg/injection, schedule: Q01DX009 (ip), vehicle: Klucel (hydroxypropylcellulose) (HPC)
[8] = dose: 100.0 mg/kg/injection, schedule: Q01DX009 (ip), vehicle: Klucel (hydroxypropylcellulose) (HPC)
[9] = dose: 100.0 mg/kg/injection, schedule: Q04DX003 (ip), vehicle: Klucel (hydroxypropylcellulose) (HPC)
[10] = dose: 200.0 mg/kg/injection, schedule: Q01DX009 (ip), vehicle: Klucel (hydroxypropylcellulose) (HPC)
[11] = dose: 200.0 mg/kg/injection, schedule: Q04DX003 (ip), vehicle: Klucel (hydroxypropylcellulose) (HPC)
[12] = dose: 100.0 mg/kg/injection, schedule: Q01DX009 (ip), vehicle: saline with Tween-80
[13] = dose: 200.0 mg/kg/injection, schedule: Q01DX009 (ip), vehicle: saline with Tween-80
[14] = dose: 100.0 mg/kg/injection, schedule: Q04DX003 (ip), vehicle: saline with Tween-80
[15] = dose: 200.0 mg/kg/injection, schedule: Q04DX003 (ip), vehicle: saline with Tween-80
[16] = dose: 400.0 mg/kg/injection, schedule: Q04DX003 (ip), vehicle: saline with Tween-80
[17] = dose: 25.0 mg/kg/injection, schedule: Q01DX009 (ip), vehicle: Klucel (hydroxypropylcellulose) (HPC)
[18] = dose: 400.0 mg/kg/injection, schedule: Q04DX003 (ip), vehicle: Klucel (hydroxypropylcellulose) (HPC)
[19] = dose: 100.0 mg/kg/injection, schedule: Q01DX001 (ip), vehicle: Klucel (hydroxypropylcellulose) (HPC)
[20] = dose: 200.0 mg/kg/injection, schedule: Q01DX001 (ip), vehicle: Klucel (hydroxypropylcellulose) (HPC)
[21] = dose: 50.0 mg/kg/injection, schedule: Q04DX002 (ip), vehicle: saline
[22] = dose: 75.0 mg/kg/injection, schedule: Q01DX001 (ip), vehicle: saline
[23] = dose: 150.0 mg/kg/injection, schedule: Q01DX001 (ip), vehicle: saline
[24] = dose: 300.0 mg/kg/injection, schedule: Q01DX001 (ip), vehicle: saline

Measured: T/C

c1ccc(C2=C(c3ccccc3)c3cccc4cccc2c34)cc1
inactive: dose: 100.0 mg/kg/injection, schedule: Q01DX001 (ip), vehicle: acetone 100 % of control | dose: 100.0 mg/kg/injection, schedule: Q01DX009 (ip), vehicle: acetone 87 % of control | [1] 94 % of control | dose: 200.0 mg/kg/injection, schedule: Q01DX001 (ip), vehicle: acetone 89 % of control | dose: 200.0 mg/kg/injection, schedule: Q01DX009 (ip), vehicle: acetone 96 % of control | [2] 97 % of control | dose: 400.0 mg/kg/injection, schedule: Q01DX001 (ip), vehicle: acetone 94 % of control | dose: 400.0 mg/kg/injection, schedule: Q01DX009 (ip), vehicle: acetone 87 % of control | [3] 92 % of control

Cc1ccc(C(=O)CCN2CCOCC2)cc1C
inactive: [1] 93 % of control | [2] 91 % of control

CC(C)O[Si](C)(C)CCl
inactive: dose: 50.0 mg/kg/injection, schedule: Q01DX001 (ip), vehicle: carboxymethylcellulose (CMC) 98 % of control | [4] 86 % of control | [5] 90 % of control | [6] 92 % of control

Cc1ccc(Cl)cc1NC(=O)c1cccc(C(=O)Nc2cc(Cl)ccc2C)c1
inactive: [7] 91 % of control | [8] 100 % of control | [9] 98 % of control | [10] 91 % of control | [11] 88 % of control

CC1CCCCN1C(=O)Nc1ccc(Cl)cc1Cl (centres undefined)
inactive: dose: 50.0 mg/kg/injection, schedule: Q01DX009 (ip), vehicle: saline with Tween-80 91 % of control | [12] 102 % of control | [13] 98 % of control

Cc1c([N+](=O)[O-])cc(I)cc1[N+](=O)[O-]
inactive: [14] 106 % of control | [15] 108 % of control | [16] 103 % of control

CCN(CC)C(=S)SSC(=S)N(CC)CC
inactive: [17] 100 % of control | dose: 25.0 mg/kg/injection, schedule: Q04DX003 (ip), vehicle: Klucel (hydroxypropylcellulose) (HPC) 93 % of control | [7] 100 % of control | dose: 50.0 mg/kg/injection, schedule: Q04DX003 (ip), vehicle: Klucel (hydroxypropylcellulose) (HPC) 93 % of control | [8] 91 % of control | [9] 96 % of control and 98 % of control | [10] 98 % of control and 101 % of control | [11] 88 % of control and 91 % of control | dose: 400.0 mg/kg/injection, schedule: Q01DX009 (ip), vehicle: Klucel (hydroxypropylcellulose) (HPC) 96 % of control and 100 % of control | [18] 93 % of control and 96 % of control

CCC1SC(CC)(CC(C)C)C(=O)NC1=O (centres undefined)
inactive: [4] 102 % of control | [5] 94 % of control | [6] 94 % of control

O=C1CC2(CCN(Cc3ccccc3)CC2)C(=O)N1N1CCCC1
inactive: [19] 91 % of control | [20] 88 % of control | dose: 400.0 mg/kg/injection, schedule: Q01DX001 (ip), vehicle: Klucel (hydroxypropylcellulose) (HPC) 89 % of control

O=C(NNCCO)C(O)C(O)C(O)C(O)CO (centres undefined)
inactive: [1] 97 % of control | [2] 97 % of control | [3] 97 % of control

CN(Cc1cnc2cc(N)nc(N)c2n1)c1ccc(C(=O)O)cc1
inactive: dose: 25.0 mg/kg/injection, schedule: Q01DX009 (ip), vehicle: other 108 % of control | dose: 50.0 mg/kg/injection, schedule: Q01DX009 (ip), vehicle: other 106 % of control | dose: 75.0 mg/kg/injection, schedule: Q01DX001 (ip), vehicle: other 98 % of control | dose: 100.0 mg/kg/injection, schedule: Q01DX009 (ip), vehicle: other 101 % of control | dose: 150.0 mg/kg/injection, schedule: Q01DX001 (ip), vehicle: other 102 % of control | dose: 300.0 mg/kg/injection, schedule: Q01DX001 (ip), vehicle: other 105 % of control

CC(=O)Nc1ccc(CCCCc2c(C)nc(NC(C)=O)[nH]c2=O)cc1
inactive: [19] 91 % of control | [20] 89 % of control

Cc1cc(S(=O)(=O)NO)c(N)cc1Cl
inactive: [7] 108 % of control | [8] 99 % of control | [10] 99 % of control

Nc1ccc2c(c1)/C(=N/O)c1cc([N+](=O)[O-])ccc1-2
inactive: [4] 100 % of control | [5] 105 % of control | [6] 112 % of control

CN(C)CCC(CN=C(N)N)c1cccc2ccccc12 (centres undefined)
inactive: dose: 12.5 mg/kg/injection, schedule: Q01DX009 (ip), vehicle: saline 100 % of control | dose: 25.0 mg/kg/injection, schedule: Q01DX009 (ip), vehicle: saline 100 % of control | dose: 25.0 mg/kg/injection, schedule: Q04DX002 (ip), vehicle: saline 93 % of control | dose: 50.0 mg/kg/injection, schedule: Q01DX009 (ip), vehicle: saline 101 % of control | [21] 97 % of control

OC(c1ccccc1)C(c1ccccc1)N1CCCC1 (centres undefined)
inactive: [22] 94 % of control | [23] 97 % of control | [24] 92 % of control

O=C(/C=C/c1ccc(O)cc1)c1ccccc1
inactive: [12] 102 % of control | [14] 109 % of control | [13] 108 % of control | [15] 102 % of control | dose: 400.0 mg/kg/injection, schedule: Q01DX009 (ip), vehicle: saline with Tween-80 102 % of control | [16] 98 % of control

CCNC(=O)c1ccccc1-c1ccccc1C(=O)NCC
inactive: dose: 100.0 mg/kg/injection, schedule: Q01DX001 (ip), vehicle: other 104 % of control

O=C(O)Cc1sc(=O)[nH]c1O
inactive: dose: 100.0 mg/kg/injection, schedule: Q01DX009 (ip), vehicle: saline 96 % of control | [1] 102 % of control | dose: 200.0 mg/kg/injection, schedule: Q01DX009 (ip), vehicle: saline 96 % of control | [2] 96 % of control | dose: 400.0 mg/kg/injection, schedule: Q01DX009 (ip), vehicle: saline 99 % of control | [3] 106 % of control

S=c1[nH]c2ccccc2c2ccccc12
inactive: [7] 96 % of control | [8] 105 % of control | [9] 97 % of control | [10] 97 % of control | [11] 90 % of control | [18] 95 % of control

O=C(O)C(O)(Cc1ccccc1)C(=O)C(O)C(O)CO (centres undefined)
inactive: [21] 87 % of control | dose: 100.0 mg/kg/injection, schedule: Q04DX002 (ip), vehicle: saline 106 % of control | dose: 200.0 mg/kg/injection, schedule: Q04DX002 (ip), vehicle: saline 91 % of control

CCOC(=O)c1cnc(SC)nc1N(C)c1ccccc1
inactive: dose: 44.0 mg/kg/injection, schedule: Q04DX003 (ip), vehicle: Klucel (hydroxypropylcellulose) (HPC) 98 % of control | dose: 66.0 mg/kg/injection, schedule: Q04DX003 (ip), vehicle: Klucel (hydroxypropylcellulose) (HPC) 99 % of control | dose: 67.0 mg/kg/injection, schedule: Q04DX003 (ip), vehicle: Klucel (hydroxypropylcellulose) (HPC) 95 % of control | [9] 98 % of control and 101 % of control | dose: 150.0 mg/kg/injection, schedule: Q04DX003 (ip), vehicle: Klucel (hydroxypropylcellulose) (HPC) 95 % of control and 97 % of control

CN(C)CCc1ccc(Nc2ccnc3cc(Cl)ccc23)cc1
inactive: [22] 101 % of control | [23] 98 % of control | [24] 95 % of control

Cc1cccc(NC(=O)CCl)c1
inactive: [17] 94 % of control | [7] 87 % of control | [8] 103 % of control and 92 % of control | [9] 103 % of control | [11] 96 % of control and 86 % of control | [18] 99 % of control

CSCC(C)O (centres undefined)
inactive: [1] 109 % of control | [2] 115 % of control | [3] 109 % of control

Clc1cccc2c1Cc1c(Cl)cccc1C2
inactive: dose: 100.0 mg/kg/injection, schedule: Q01DX001 (ip), vehicle: saline with Tween-80 97 % of control | dose: 200.0 mg/kg/injection, schedule: Q01DX001 (ip), vehicle: saline with Tween-80 94 % of control | dose: 400.0 mg/kg/injection, schedule: Q01DX001 (ip), vehicle: saline with Tween-80 97 % of control
